Measured values as given in patent US20260035387A1 (BIOGEN MA INC., priority 2022, published 2026).

tested on: mutant Huntington (HTT) protein; assay: HTT Mutant HTRF iPSC assay (mHTT protein lowering); assay type: cell-based; conditions: human iPSC derived from a HTT patient with a poly-Q49 mutation

| SMILES | IC50 |
| --- | --- |
| Cc1cn2cc(NC(=O)c3cc4ccc(N5CCCN(C)CC5)nc4s3)ccc2n1 [Compound 40, 6-(4-methyl-1,4-diazepan-1-yl)-N-(2-methylimidazo[1,2-a]pyridin-6-yl)thieno[2,3-b]pyridine-2-carboxamide] | 100 to 1000 nM |
| Cc1cn2cc(NC(=O)c3cc4ccc(NCC(C)(C)CN(C)C)nc4s3)ccc2n1 [Compound 41, 6-((3-(dimethylamino)-2,2-dimethylpropyl)amino)-N-(2-methylimidazo[1,2-a]pyridin-6-yl)thieno[2,3-b]pyridine-2-carboxamide] | 1000 to 9000 nM |
| Cc1cn2cc(NC(=O)c3cc4ccc(Nc5cccc(N6CC(C)(C)C6)c5)nc4s3)ccc2n1 [Compound 42, 6-((3-(3,3-dimethylazetidin-1-yl)phenyl)amino)-N-(2-methylimidazo[1,2-a]pyridin-6-yl)thieno[2,3-b]pyridine-2-carboxamide] | 1000 to 9000 nM |
| Cc1cn2cc(NC(=O)c3cc4ccc(Nc5ccc(N6CC(C)(C)C6)cc5)nc4s3)ccc2n1 [Compound 44, 6-((4-(3,3-dimethylazetidin-1-yl)phenyl)amino)-N-(2-methylimidazo[1,2-a]pyridin-6-yl)thieno[2,3-b]pyridine-2-carboxamide] | 1000 to 9000 nM |
| Cc1cn2cc(NC(=O)c3cc4ccc(N5CC6CCCN6CC5C)nc4s3)ccc2n1 (stereo not drawn) [Compound 45, 6-(3-methylhexahydropyrrolo[1,2-a]pyrazin-2(1H)-yl)-N-(2-methylimidazo[1,2-a]pyridin-6-yl)thieno[2,3-b]pyridine-2-carboxamide] | 100 to 1000 nM |
| CCN1Cc2cccc(Nc3ccc4cc(C(=O)Nc5ccc6nc(C)cn6c5)sc4n3)c2C1 [Compound 46, 6-((2-ethylisoindolin-4-yl)amino)-N-(2-methylimidazo[1,2-a]pyridin-6-yl)thieno[2,3-b]pyridine-2-carboxamide] | 1000 to 9000 nM |
| Cc1cn2cc(NC(=O)c3cc4ccc(Nc5ccc6c(c5)N(C)CCN(C)C6)nc4s3)ccc2n1 [Compound 47, 6-((1,4-dimethyl-2,3,4,5-tetrahydro-1H-benzo[e][1,4]diazepin-8-yl)amino)-N-(2-methylimidazo[1,2-a]pyridin-6-yl)thieno[2,3-b]pyridine-2-carboxamide] | 1000 to 9000 nM |
| Cc1cn2cc(NC(=O)c3cc4ccc(N5CCC5CN(C)C)nc4s3)ccc2n1 (stereo not drawn) [Compound 48, 6-(2-((dimethylamino)methyl)azetidin-1-yl)-N-(2-methylimidazo[1,2-a]pyridin-6-yl)thieno[2,3-b]pyridine-2-carboxamide] | 1000 to 9000 nM |
| CN(C)C1CCN(c2ccc3cc(C(=O)Nc4ccc5[nH]c(=O)n(C)c5c4)sc3n2)C1 (stereo not drawn) [Compound 49, 6-(3-(dimethylamino)pyrrolidin-1-yl)-N-(3-methyl-2-oxo-2,3-dihydro-1H-benzo[d]imidazol-5-yl)thieno[2,3-b]pyridine-2-carboxamide] | 1000 to 9000 nM |
| Cc1cn2cc(NC(=O)c3cc4ccc(N5CC[C@H](N(C)C)C5)nc4s3)nc(C)c2n1 [Compound 50, (S)-6-(3-(dimethylamino)pyrrolidin-1-yl)-N-(2,8-dimethylimidazo[1,2-a]pyrazin-6-yl)thieno[2,3-b]pyridine-2-carboxamide] | 100 to 1000 nM |
| Cc1cn2cc(NC(=O)c3cc4ccc(N5CC[C@@H](N(C)C)C5)nc4s3)nc(C)c2n1 [Compound 51, (R)-6-(3-(dimethylamino)pyrrolidin-1-yl)-N-(2,8-dimethylimidazo[1,2-a]pyrazin-6-yl)thieno[2,3-b]pyridine-2-carboxamide] | < 100 nM |
| Cc1cn2nc(NC(=O)c3cc4ccc(N5CC[C@H](N(C)C)C5)nc4s3)ccc2n1 [Compound 52, (S)-6-(3-(dimethylamino)pyrrolidin-1-yl)-N-(2-methylimidazo[1,2-b]pyridazin-6-yl)thieno[2,3-b]pyridine-2-carboxamide] | 100 to 1000 nM |
| Cc1cn2nc(NC(=O)c3cc4ccc(N5CC[C@@H](N(C)C)C5)nc4s3)ccc2n1 [Compound 53, (R)-6-(3-(dimethylamino)pyrrolidin-1-yl)-N-(2-methylimidazo[1,2-b]pyridazin-6-yl)thieno[2,3-b]pyridine-2-carboxamide] | 1000 to 9000 nM |
| Cc1cn2cc(NC(=O)c3cc4ccc(N5CC[C@H](N(C)C)C5)nc4s3)cc(F)c2n1 [Compound 54, 6-[(3S)-3-(dimethylamino)pyrrolidin-1-yl]-N-(8-fluoro-2-methyl-imidazo[1,2-a]pyridin-6-yl)thieno[2,3-b]pyridine-2-carboxamide] | < 100 nM |
| Cc1cn2cc(NC(=O)c3cc4ccc(N5CC[C@@H](N(C)C)C5)nc4s3)cc(F)c2n1 [Compound 55, 6-[(3R)-3-(dimethylamino)pyrrolidin-1-yl]-N-(8-fluoro-2-methyl-imidazo[1,2-a]pyridin-6-yl)thieno[2,3-b]pyridine-2-carboxamide] | < 100 nM |
| Cc1cn2nc(NC(=O)c3cc4ccc(N5CC[C@@H](N(C)C)C5)nc4s3)cc(C)c2n1 [Compound 56, (R)-6-(3-(dimethylamino)pyrrolidin-1-yl)-N-(2,8-dimethylimidazo[1,2-b]pyridazin-6-yl)thieno[2,3-b]pyridine-2-carboxamide] | 1000 to 9000 nM |
| Cc1cn2cc(NC(=O)c3cc4ccc(N5CCCC5)nc4s3)nc(C)c2n1 [Compound 57, N-(2,8-dimethylimidazo[1,2-a]pyrazin-6-yl)-6-(pyrrolidin-1-yl)thieno[2,3-b]pyridine-2-carboxamide] | 1000 to 9000 nM |

| SMILES | IC50 |
| --- | --- |
| CN(C)C1CCN(c2ccc3cc(C(=O)Nc4ccc5c(c4)n(C)c(=O)n5C)sc3n2)C1 (stereo not drawn) [Compound 58, N-(1,3-dimethyl-2-oxo-2,3-dihydro-1H-benzo[d]imidazol-5-yl)-6-(3-(dimethylamino)pyrrolidin-1-yl)thieno[2,3-b]pyridine-2-carboxamide] | 1000 to 9000 nM |
| CN(C)C1CCN(c2ccc3cc(C(=O)Nc4ccc5sc(=O)n(C)c5c4)sc3n2)C1 (stereo not drawn) [Compound 59, 6-(3-(dimethylamino)pyrrolidin-1-yl)-N-(3-methyl-2-oxo-2,3-dihydrobenzo[d]thiazol-5-yl)thieno[2,3-b]pyridine-2-carboxamide] | 1000 to 9000 nM |
| CN(C)C1CCN(c2ccc3cc(C(=O)Nc4cnn5c(C(F)(F)F)ccnc45)sc3n2)C1 (stereo not drawn) [Compound 60, 6-(3-(dimethylamino)pyrrolidin-1-yl)-N-(7-(trifluoromethyl)pyrazolo[1,5-a]pyrimidin-3-yl)thieno[2,3-b]pyridine-2-carboxamide] | 1000 to 9000 nM |
| CC(C)n1ncc2ccc(NC(=O)c3cc4ccc(N5CCC(N(C)C)C5)nc4s3)cc21 (stereo not drawn) [Compound 61, 6-(3-(dimethylamino)pyrrolidin-1-yl)-N-(1-isopropyl-1H-indazol-6-yl)thieno[2,3-b]pyridine-2-carboxamide] | 1000 to 9000 nM |
| CN(C)C1CCN(c2ccc3cc(C(=O)Nc4ccc5cncn5c4)sc3n2)C1 (stereo not drawn) [Compound 62, 6-(3-(dimethylamino)pyrrolidin-1-yl)-N-(imidazo[1,5-a]pyridin-6-yl)thieno[2,3-b]pyridine-2-carboxamide] | 1000 to 9000 nM |
| CN(C)C1CCN(c2ccc3cc(C(=O)Nc4ccc5nsnc5c4)sc3n2)C1 (stereo not drawn) [Compound 63, N-(benzo[c][1,2,5]thiadiazol-5-yl)-6-(3-(dimethylamino)pyrrolidin-1-yl)thieno[2,3-b]pyridine-2-carboxamide] | 1000 to 9000 nM |
| CN(C)C1CCN(c2ccc3cc(C(=O)Nc4nc5cnccn5n4)sc3n2)C1 (stereo not drawn) [Compound 64, N-([1,2,4]triazolo[1,5-a]pyrazin-2-yl)-6-(3-(dimethylamino)pyrrolidin-1-yl)thieno[2,3-b]pyridine-2-carboxamide] | 1000 to 9000 nM |
| CN(C)C1CCN(c2ccc3cc(C(=O)Nc4cc(F)c5nn(C)cc5c4)sc3n2)C1 (stereo not drawn) [Compound 65, 6-(3-(dimethylamino)pyrrolidin-1-yl)-N-(7-fluoro-2-methyl-2H-indazol-5-yl)thieno[2,3-b]pyridine-2-carboxamide] | < 100 nM |
| Cc1cn2cc(NC(=O)c3cc4ccc(N5C[C@@H]6CCN(C)[C@@H]6C5)nc4s3)cc(F)c2n1 [Compound 66, 6-[(3aS,6aS)-1-methyl-2,3,3a,4,6,6a-hexahydropyrrolo[3,4-b]pyrrol-5-yl]-N-(8-fluoro-2-methyl-imidazo[1,2-a]pyridin-6-yl)thieno[2,3-b]pyridine-2-carboxamide] | < 100 nM |
| Cc1cn2cc(NC(=O)c3cc4ccc(N5C[C@@H](C)N(C)[C@@H](C)C5)nc4s3)cc(F)c2n1 [Compound 69, N-(8-fluoro-2-methylimidazo[1,2-a]pyridin-6-yl)-6-((3R,5S)-3,4,5-trimethylpiperazin-1-yl)thieno[2,3-b]pyridine-2-carboxamide] | < 100 nM |
| Cc1cn2cc(NC(=O)c3cc4ccc(N5C[C@H]6CCN(C)[C@H]6C5)nc4s3)cc(F)c2n1 [Compound 70, N-(8-fluoro-2-methylimidazo[1,2-a]pyridin-6-yl)-6-((3aR,6aR)-1-methylhexahydropyrrolo[3,4-b]pyrrol-5(1H)-yl)thieno[2,3-b]pyridine-2-carboxamide] | < 100 nM |
| Cc1nc2c(F)cc(NC(=O)c3cc4ccc(N5CCC(N(C)C)C5)nc4s3)cc2o1 (stereo not drawn) [Compound 71, 6-(3-(dimethylamino)pyrrolidin-1-yl)-N-(4-fluoro-2-methylbenzo[d]oxazol-6-yl)thieno[2,3-b]pyridine-2-carboxamide] | < 100 nM |
| COc1cc(NC(=O)c2cc3ccc(N4CCC(N(C)C)C4)nc3s2)cn2cc(C)nc12 (stereo not drawn) [Compound 72, 6-(3-(dimethylamino)pyrrolidin-1-yl)-N-(8-methoxy-2-methylimidazo[1,2-a]pyridin-6-yl)thieno[2,3-b]pyridine-2-carboxamide] | 100 to 1000 nM |
| Cc1cn2cc(NC(=O)c3cc4ccc(N5CCC(N(C)C)C5)nc4s3)cc(C)c2n1 (stereo not drawn) [Compound 73, 6-(3-(dimethylamino)pyrrolidin-1-yl)-N-(2,8-dimethylimidazo[1,2-a]pyridin-6-yl)thieno[2,3-b]pyridine-2-carboxamide] | 1000 to 9000 nM |
| COc1cc2nn(C)cc2cc1NC(=O)c1cc2ccc(N3CCC(N(C)C)C3)nc2s1 (stereo not drawn) [Compound 74, 6-(3-(dimethylamino)pyrrolidin-1-yl)-N-(6-methoxy-2-methyl-2H-indazol-5-yl)thieno[2,3-b]pyridine-2-carboxamide] | 100 to 1000 nM |
| Cc1cn2cc(NC(=O)c3cc4ccc(N5CCNCC5)nc4s3)cc(F)c2n1 [Compound 75, N-(8-fluoro-2-methylimidazo[1,2-a]pyridin-6-yl)-6-(piperazin-1-yl)thieno[2,3-b]pyridine-2-carboxamide] | < 100 nM |
